Test results as given in patent publication US10238738B2, “Methods of modulating immune system responses” (priority 2014, dated 2019).

Legend:
Assay type in all cases: cell-based, human
NF-κB = NF-κB luciferase reporter assay in 293T cells
Method: 293T were maintained in DMEM supplemented with 10% FBS, 1% glutamax, and 1% penicillin streptomycin. Jurkat 1G5 cells contain a stably-integrated LTR-luciferase reporter gene (Aguilar-Cordova et al., 1994), and were maintained in RPMI supplemented with 10% FBS and 1% glutamax. THP-1 cells were maintained in RPMI supplemented with 10% FBS and 1% glutamax and differentiated to macrophages with 50 ng/ml PMA for 48 hr, followed by a 48 hr rest period prior to stimulation. To measure LTR-driven luciferase, 1G5 cells were lysed and luminescence determined using the Luciferase Assay kit (Promega) according to manufacturer's instructions. Results are expressed as fold change compared to untreated. 293T cells were transfected in 96 well plates with 90 ng ELAM firefly luciferase reporter plasmid (Chow et al., 1999) and 10 ng pRL-TK Renilla plasmid using TransiT LTI (Mirus). 18 hours later cells were treated for 6 hours and luciferase activity determined using the Dual-Glo Luciferase Assay System (Promega). Results are expressed as fold increase relative to transfected, mock treated cells following normalization to Renilla luciferase. Digitonin permeabilization assays were done as described previously (Girardin et al., 2003) with the following modifications: 1G5 cells were stimulated with purified HBP supernatants, or 10 μg/ml flagellin (Invivogen) for 20 minutes at 4° C. in the absence or presence of 2 μg/ml digitonin (Sigma). […]
293T were maintained in DMEM supplemented with 10% FBS, 1% glutamax, and 1% penicillin streptomycin. […] To measure LTR-driven luciferase, 1G5 cells were lysed and luminescence determined using the Luciferase Assay kit (Promega) according to manufacturers instructions. Results are expressed as fold change compared to untreated. […] 18 hours later cells were treated for 6 hours and luciferase activity determined using the Dual-Glo Luciferase Assay System (Promega). Results are expressed as fold increase relative to transfected, mock treated cells following normalization to Renilla luciferase.

[1] = tested on: HIV gene expression from latently-infected cells; assay: Latent HIV-1 reporter Jurkat T cell line (RG5), DsRed expression; conditions: FIG. 11B
Text: The full-length HIV-1 molecular clone pLAl containing the following modifications was used as the reporter backbone: Avrll deletion of the 3′ end of Gag and the entire coding sequence of Pol, and a the Ndel/Stul deletion of the 3′ end of Env. The Dsred allele was cloned into the Nef reading frame using BamH1, and Xhol. Lentiviral particles were produced by co-transfection into 293T cells with pMDG.2 and psPAX2. Jurkat cells were transduced with the minimum dose required to see DsRed positive cells following treatment with 10 ng/ml TNFα. 48 hours post transfection, cells were treated HBP, and DsRed positive cells sorted by FACS. Cells were cultured for 14 days followed by DsRed negative cell sorting by FACS. 5 days later, cells were induced with HBP, and DsRed positive cells collected into 96 well plates (0.5 cells/well). Clones were individually tested for low basal DsRed expression, and high DsRed expression following treatment with both HBP and TNFα and termed RG5.
Live cells were re-suspended to 1×10^6 cells/ml in 2% FBS in PBS and analyzed using a FACSCalibur with CellQuest software (Becton Dickinson). Analysis was preformed using FlowJo software (TreeStar). Cell sorting was done using an Aria I cell sorter (Becton Dickinson).

TIFA expression = assay: qRT-PCR of TIFA mRNA levels in Jurkat T cells; conditions: dependent on RelA, FIG. 13
Text: FIG. 13. Shown is qRT-PCR analysis of TIFA mRNA levels in Jurkat T cells treated with HBP, flagellin, or TNFα (after knockdown of the NF-κB subunit ReIA, or treated with a scrambled shRNA (shCtrl).
RNA was isolated using an RNeasy kit (Qiagen) per manufacturers' protocol. cDNA was synthesized using the iScript cDNA synthesis kit (Bio-Rad) and treated with TURBO DNase (Life Technologies). cDNA was amplified using SsoAdvanced SYBR Green (Bio-Rad) using a C1000 thermal cycler (Bio-Rad). Target genes were amplified using the following primers: […]
Relative expression was calculated using the 2^−ΔΔCT method following normalization of target gene abundance to GAPDH. Quantitative measurements of cytokines were performed using ELISA kits form R&D Systems (KC, IL-23, IFN-β) or BD Biosciences (IL-1β, IL-8, IL-6, IL-12p70, TNF-α). Nuclear extracts were prepared from Jurkat T cells and NF-κB subunit binding was determined using the TransAM® Transcription Factor ELISA (Active Motif). Microarray

Q: For `O=P(O)(O)OC[C@@H](O)[C@H]1OC(OP(=O)(O)O)[C@@H](O)[C@@H](O)[C@@H]1O` (stereo partly drawn) [HBP, D-glycerol-D-manno-heptose-1,7-bisphosphate], which “NF-κB activation after incubation of the product with phosphatase GmhB” value (NF-κB; FIG. 1e) is on record?
A: decreased NF-κB activation

Q: What about the NF-κB activation (NF-κB; product of in vitro reaction of S7P with GmhA and HldA, FIG. 1d) of the same compound?
A: potently stimulated NF-κB

Q: And the “HIV gene expression from latently-infected cells” value [1]?
A: potently induce HIV gene expression

Q: And the “Upregulation of TIFA expression” value (TIFA expression)?
A: over 5 fold
